Experimental data reported in patent publication US11484543B2, “Compositions and methods for diagnosing and treating diseases and disorders associated with mutant KCNJ5” (The Rockefeller University, priority 2017, dated 2022).

Assays:
[1] = tested on: CYP11B2 (aldosterone synthase) expression, H295R cells expressing KCNJ5^WT; experiment: Real-time PCR of CYP11B2 in H295R cells transfected with KCNJ5^WT; assay type: cell-based, human; details: 5, 20 or 50 μM for 18 h
Experimental: H295R cells were cultured in DMEM/F12, HEPES (Gibco) supplemented with 2.5% Ultroser G (Pall Biosepra), 1% ITS+ Premix (Corning) and 1% Penicillin/Streptomycin (Gibco). Plasmids were purified using the Endofree Maxi Kit (Qiagen). […] 3×10^6 cells were transfected with 3 μg pIRES eGFP containing no insert, WT or mutant KCNJ5 using an Amaxa Nucleofector I (program P-20) and the Nucleofector Kit R (Lonza). Cells were allowed to recover briefly in RPMI 1640 medium (Gibco). […] After an additional 18 h, RNA was harvested using the RNeasy Mini Kit (Qiagen) following the manufacturer's instructions. 300 ng RNA were transcribed using the Quantitect Reverse Transcription Kit (Qiagen). Expression levels of CYP11B2 and GAPDH were quantified in triplicates in a 7300 Real-Time PCR System (Applied Biosystems) using the Taqman Gene Expression Master Mix and assays Hs01597732_m1 (CYP11B2) or HS02758991_g1 (GAPDH) (all Applied Biosystems). DDCT values were calculated by normalization of DCT values, using the average DCT of vehicle treated empty vector-transfected cells as a reference.
This cell line is derived from a human adrenocortical carcinoma and represents a commonly used in vitro model of zona glomerulosa aldosterone production (Wang et al. 2012, Horm. Metab. Res. 44:245-250). […]

[2] = molecular target: T1, KCNJ5^G151R homotetramers (Homo sapiens, UniProt P48544, G151R); experiment: Perforated whole-cell patch clamp, KCNJ5^G151R homotetramers in HEK293T cells; assay type: cell-based; details: HEK-293T, at −80 mV
T1 construct: GFP; expressed in transfected cells; host or cells: HEK293T (American Type Culture Collection), transient
T1 sequence (P48544 1-419 G151R): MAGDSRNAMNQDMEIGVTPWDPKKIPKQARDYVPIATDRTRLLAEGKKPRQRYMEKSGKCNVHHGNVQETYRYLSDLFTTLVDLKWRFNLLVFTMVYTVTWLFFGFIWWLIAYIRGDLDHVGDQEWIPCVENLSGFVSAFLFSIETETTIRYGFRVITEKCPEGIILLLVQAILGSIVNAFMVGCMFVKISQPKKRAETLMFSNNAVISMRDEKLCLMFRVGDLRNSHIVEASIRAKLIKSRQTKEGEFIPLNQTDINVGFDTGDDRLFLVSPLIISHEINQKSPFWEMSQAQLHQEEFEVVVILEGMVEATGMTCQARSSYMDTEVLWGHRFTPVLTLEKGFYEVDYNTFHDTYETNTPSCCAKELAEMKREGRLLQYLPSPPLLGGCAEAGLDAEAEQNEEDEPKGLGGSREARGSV
Experimental: Cation currents were measured with the perforated whole cell recording technique (140 mM NaCl/5 mM KCl bath solution, 140 mM KCl pipette solution for KCNJ5^G151R; 140 mM NaCl/5 mM KCl bath solution, 140 mM KCl, 1.8 mM MgCl2 pipette solution for KCNJ5^L168R; 140 mM KCl bath and pipette solution for KCNJ5^WT). […] Errors represent standard error of the mean, N=3 to 6. […] In contrast, WT currents are not inhibited.
HEK293T cells (American Type Culture Collection) were used for transient expression of GFP-tagged KCNJ5 or KCNJ3. The cells were grown in Dulbecco's modified Eagle medium (DMEM; Invitrogen) supplemented with 10% FBS (Invitrogen) in 5% CO2 and 95% air at 37° C. […]
Within 24 hr after transfection, the cells were treated with trypsin-containing medium (TrypLE Express) (Gibco) for 10 minutes to detach the cells. […] Fluorescence signal (an indication of positive transfection) was detected with an intensified video imaging system including a SIT 68 camera (Long Island Industries). […] After forming a high resistance seal (>2 GΩ), the membrane capacitance was monitored until the whole-cell patch configuration was formed. The cell membrane capacitance was measured and compensated. The K/cation currents were measured from −80 mV to 20 mV with 20 mV steps by an Axon 200A patch-clamp amplifier. […]

## CC[C@H]1OC(=O)[C@H](C)[C@@H](O[C@H]2C[C@@](C)(OC)[C@@H](O)[C@H](C)O2)[C@H](C)[C@@H](O[C@@H]2O[C@H](C)C[C@H](N(C)C)[C@H]2O)[C@](C)(O)C[C@@H](C)/C(=N\OCOCCOC)[C@H](C)[C@@H](O)[C@]1(C)O [Roxithromycin, roxithromycin]
[1]
  expression of CYP11B2: virtually no change
[2]; 10 μM
  inhibition at 10 µM: 53%
[2]; 20 μM
  inhibition at 20 µM: 80%
